Data from PMC9578392, “Safety, Tolerability, and Pharmacokinetics of the Novel Antiviral Agent Ensitrelvir Fumaric Acid, a SARS-CoV-2 3CL Protease Inhibitor, in Healthy Adults” (Antimicrobial Agents and Chemotherapy, 2022).

Experiment: Treatment-emergent adverse events, multiple dose (part 2)
Type: in vivo, human
Settings: for Abdominal pain, Events / Abdominal pain, n (%) / Blood creatine phosphate increased, Events / Blood creatine phosphate increased, n (%) / Blood triglyceride increased, Events / Blood triglyceride increased, n (%) / C-reactive protein increased, Events / C-reactive protein increased, n (%) / Diarrhea, Events / Diarrhea, n (%) / Dizziness, Events / Dizziness, n (%) / Feeling hot, Events / Feeling hot, n (%) / Gastrointestinal disorders, Events / Gastrointestinal disorders, n (%) / General disorders and administration site conditions, Events / General disorders and administration site conditions, n (%) / Headache, Events / Headache, n (%) / High-density lipoprotein cholesterol decreased, Events / High-density lipoprotein cholesterol decreased, n (%) / Investigations, Events / Investigations, n (%) / Nausea, Events / Nausea, n (%) / Nervous system disorders, Events / Nervous system disorders, n (%) / Oropharyngeal pain, Events / Oropharyngeal pain, n (%) / Participants with any TEAE, Events / Participants with any TEAE, n (%) / Pyrexia, Events / Pyrexia, n (%) / Rash, Events / Rash, n (%) / Respiratory, thoracic, and mediastinal disorders, Events / Respiratory, thoracic, and mediastinal disorders, n (%) / Skin and subcutaneous tissue disorders, Events / Skin and subcutaneous tissue disorders, n (%) / Somnolence, Events / Somnolence, n (%) / Vomiting, Events / Vomiting, n (%): n = 8
Procedure: In part 1, Japanese participants were randomized to receive placebo or single dose of ensitrelvir (20, 70, 250, 500, 1,000, and 2,000 mg given to cohorts A, B, C, D, E, and J, respectively), suspended in 0.5% methylcellulose, in the fasted state. Additionally, in cohort C, the effect of food on the pharmacokinetics of ensitrelvir was investigated in a 2-group, 2-period crossover design by administering placebo or ensitrelvir (250 mg) in the fasted or fed (high-fat/high-calorie) state. In part 2, Japanese participants were randomized to receive placebo or multiple doses of ensitrelvir, suspended in 0.5% methylcellulose. The multiple-dose regimens were as follows: once-daily doses of ensitrelvir 375 mg on day 1 and 125 mg on days 2 to 5 (cohort F), or 750 mg on day 1 and 250 mg on days 2 to 6 (cohort G) in the fasted state. White participants were randomized to receive placebo or multiple doses of ensitrelvir. The multiple-dose regimens were as follows: once-daily doses of ensitrelvir 375 mg on day 1 and 125 mg on days 2 to 5 (cohort H). Each cohort included 11 participants. In cohort G, the effect of ensitrelvir on the pharmacokinetics of midazolam (syrup) was evaluated in an open label self-controlled crossover design. Midazolam 2 mg alone was administered 2 days prior to initiating ensitrelvir administration (on day −2) and midazolam was coadministered on day 6 with placebo or ensitrelvir in the fasted state to participants following once-daily doses for 5 days of placebo (days 1 to 5) or ensitrelvir (750 mg on day 1 and 250 mg on days 2–5).
The nature, frequency, and severity of TEAEs were evaluated and recorded.

[1] = Cohort F 375/125 mg, Japanese, listed as ensitrelvir
[2] = Cohort G 750/250 mg + midazolam, Japanese
[3] = Cohort G 750/250 mg + midazolam, Japanese, listed as ensitrelvir
[4] = Cohort H 125 mg, white, listed as ensitrelvir

Cn1cnc(Cn2c(=O)[nH]/c(=N\c3cc4cn(C)nc4cc3Cl)n(Cc3cc(F)c(F)cc3F)c2=O)n1 [Ensitrelvir, ensitrelvir fumaric acid]
Abdominal pain, Events (Cohort F 375/125 mg, Japanese): 0 | Abdominal pain, n (%) (Cohort F 375/125 mg, Japanese): 0 | Blood creatine phosphate increased, Events (Cohort F 375/125 mg, Japanese): 0 | Blood creatine phosphate increased, n (%) (Cohort F 375/125 mg, Japanese): 0 | Blood triglyceride increased, Events (Cohort F 375/125 mg, Japanese): 0 | Blood triglyceride increased, n (%) (Cohort F 375/125 mg, Japanese): 0 | C-reactive protein increased, Events (Cohort F 375/125 mg, Japanese): 0 | C-reactive protein increased, n (%) (Cohort F 375/125 mg, Japanese): 0 | Diarrhea, Events (Cohort F 375/125 mg, Japanese): 5 | Diarrhea, n (%) (Cohort F 375/125 mg, Japanese): 4 (50.0) | Dizziness, Events (Cohort F 375/125 mg, Japanese): 0 | Dizziness, n (%) (Cohort F 375/125 mg, Japanese): 0 | Feeling hot, Events (Cohort F 375/125 mg, Japanese): 0 | Feeling hot, n (%) (Cohort F 375/125 mg, Japanese): 0 | Gastrointestinal disorders, Events (Cohort F 375/125 mg, Japanese): 5 | Gastrointestinal disorders, n (%) (Cohort F 375/125 mg, Japanese): 4 (50.0) | General disorders and administration site conditions, Events (Cohort F 375/125 mg, Japanese): 0 | General disorders and administration site conditions, n (%) (Cohort F 375/125 mg, Japanese): 0 | Headache, Events (Cohort F 375/125 mg, Japanese): 0 | Headache, n (%) (Cohort F 375/125 mg, Japanese): 0 | High-density lipoprotein cholesterol decreased, Events (Cohort F 375/125 mg, Japanese): 7 | High-density lipoprotein cholesterol decreased, n (%) (Cohort F 375/125 mg, Japanese): 7 (87.5) | Investigations, Events (Cohort F 375/125 mg, Japanese): 7 | Investigations, n (%) (Cohort F 375/125 mg, Japanese): 7 (87.5) | Nausea, Events (Cohort F 375/125 mg, Japanese): 0 | Nausea, n (%) (Cohort F 375/125 mg, Japanese): 0 | Nervous system disorders, Events (Cohort F 375/125 mg, Japanese): 0 | Nervous system disorders, n (%) (Cohort F 375/125 mg, Japanese): 0 | Oropharyngeal pain, Events (Cohort F 375/125 mg, Japanese): 0 | Oropharyngeal pain, n (%) (Cohort F 375/125 mg, Japanese): 0 | Participants with any TEAE, Events (Cohort F 375/125 mg, Japanese): 12 | Participants with any TEAE, n (%) (Cohort F 375/125 mg, Japanese): 7 (87.5) | Pyrexia, Events (Cohort F 375/125 mg, Japanese): 0 | Pyrexia, n (%) (Cohort F 375/125 mg, Japanese): 0 | Rash, Events (Cohort F 375/125 mg, Japanese): 0 | Rash, n (%) (Cohort F 375/125 mg, Japanese): 0 | Respiratory, thoracic, and mediastinal disorders, Events (Cohort F 375/125 mg, Japanese): 0 | Respiratory, thoracic, and mediastinal disorders, n (%) (Cohort F 375/125 mg, Japanese): 0 | Skin and subcutaneous tissue disorders, Events (Cohort F 375/125 mg, Japanese): 0 | Skin and subcutaneous tissue disorders, n (%) (Cohort F 375/125 mg, Japanese): 0 | Somnolence, Events (Cohort F 375/125 mg, Japanese): 0 | Somnolence, n (%) (Cohort F 375/125 mg, Japanese): 0 | Vomiting, Events (Cohort F 375/125 mg, Japanese): 0 | Vomiting, n (%) (Cohort F 375/125 mg, Japanese): 0 | Diarrhea, n (%) [1]: 4/8 | High-density lipoprotein cholesterol decreased, n (%) [1]: 7/8 | Abdominal pain, Events [2]: 0 | Abdominal pain, n (%) [2]: 0 | Blood creatine phosphate increased, Events [2]: 1 | Blood creatine phosphate increased, n (%) [2]: 1 (12.5) | Blood triglyceride increased, Events [2]: 2 | Blood triglyceride increased, n (%) [2]: 2 (25.0) | C-reactive protein increased, Events [2]: 1 | C-reactive protein increased, n (%) [2]: 1 (12.5) | Diarrhea, Events [2]: 6 | Diarrhea, n (%) [2]: 4 (50.0) | Dizziness, Events [2]: 1 | Dizziness, n (%) [2]: 1 (12.5) | Feeling hot, Events [2]: 1 | Feeling hot, n (%) [2]: 1 (12.5) | Gastrointestinal disorders, Events [2]: 8 | Gastrointestinal disorders, n (%) [2]: 4 (50.0) | General disorders and administration site conditions, Events [2]: 2 | General disorders and administration site conditions, n (%) [2]: 2 (25.0) | Headache, Events [2]: 6 | Headache, n (%) [2]: 4 (50.0) | High-density lipoprotein cholesterol decreased, Events [2]: 7 | High-density lipoprotein cholesterol decreased, n (%) [2]: 7 (87.5) | Investigations, Events [2]: 11 | Investigations, n (%) [2]: 7 (87.5) | Nausea, Events [2]: 1 | Nausea, n (%) [2]: 1 (12.5) | Nervous system disorders, Events [2]: 11 | Nervous system disorders, n (%) [2]: 5 (62.5) | Oropharyngeal pain, Events [2]: 0 | Oropharyngeal pain, n (%) [2]: 0 | Participants with any TEAE, Events [2]: 33 | Participants with any TEAE, n (%) [2]: 8 (100) | Pyrexia, Events [2]: 1 | Pyrexia, n (%) [2]: 1 (12.5) | Rash, Events [2]: 1 | Rash, n (%) [2]: 1 (12.5) | Respiratory, thoracic, and mediastinal disorders, Events [2]: 0 | Respiratory, thoracic, and mediastinal disorders, n (%) [2]: 0 | Skin and subcutaneous tissue disorders, Events [2]: 1 | Skin and subcutaneous tissue disorders, n (%) [2]: 1 (12.5) | Somnolence, Events [2]: 4 | Somnolence, n (%) [2]: 3 (37.5) | Vomiting, Events [2]: 1 | Vomiting, n (%) [2]: 1 (12.5) | Diarrhea, n (%) [3]: 4/8 | Headache, n (%) [3]: 4/8 | High-density lipoprotein cholesterol decreased, n (%) [3]: 7/8 | Somnolence, n (%) [3]: 3/8 | Abdominal pain, Events (Cohort H 125 mg, white): 1 | Abdominal pain, n (%) (Cohort H 125 mg, white): 1 (12.5) | Blood creatine phosphate increased, Events (Cohort H 125 mg, white): 0 | Blood creatine phosphate increased, n (%) (Cohort H 125 mg, white): 0 | Blood triglyceride increased, Events (Cohort H 125 mg, white): 0 | Blood triglyceride increased, n (%) (Cohort H 125 mg, white): 0 | C-reactive protein increased, Events (Cohort H 125 mg, white): 0 | C-reactive protein increased, n (%) (Cohort H 125 mg, white): 0 | Diarrhea, Events (Cohort H 125 mg, white): 6 | Dizziness, Events (Cohort H 125 mg, white): 0 | Dizziness, n (%) (Cohort H 125 mg, white): 0 | Feeling hot, Events (Cohort H 125 mg, white): 0 | Feeling hot, n (%) (Cohort H 125 mg, white): 0 | Gastrointestinal disorders, Events (Cohort H 125 mg, white): 7 | Gastrointestinal disorders, n (%) (Cohort H 125 mg, white): 4 (50.0) | General disorders and administration site conditions, Events (Cohort H 125 mg, white): 0 | General disorders and administration site conditions, n (%) (Cohort H 125 mg, white): 0 | Headache, Events (Cohort H 125 mg, white): 4 | Headache, n (%) (Cohort H 125 mg, white): 2 (25.0) | High-density lipoprotein cholesterol decreased, Events (Cohort H 125 mg, white): 7 | High-density lipoprotein cholesterol decreased, n (%) (Cohort H 125 mg, white): 7 (87.5) | Investigations, Events (Cohort H 125 mg, white): 7 | Investigations, n (%) (Cohort H 125 mg, white): 7 (87.5) | Nausea, Events (Cohort H 125 mg, white): 0 | Nausea, n (%) (Cohort H 125 mg, white): 0 | Nervous system disorders, Events (Cohort H 125 mg, white): 4 | Nervous system disorders, n (%) (Cohort H 125 mg, white): 2 (25.0) | Oropharyngeal pain, Events (Cohort H 125 mg, white): 1 | Oropharyngeal pain, n (%) (Cohort H 125 mg, white): 1 (12.5) | Participants with any TEAE, Events (Cohort H 125 mg, white): 19 | Participants with any TEAE, n (%) (Cohort H 125 mg, white): 8 (100) | Pyrexia, Events (Cohort H 125 mg, white): 0 | Pyrexia, n (%) (Cohort H 125 mg, white): 0 | Rash, Events (Cohort H 125 mg, white): 0 | Rash, n (%) (Cohort H 125 mg, white): 0 | Respiratory, thoracic, and mediastinal disorders, Events (Cohort H 125 mg, white): 1 | Respiratory, thoracic, and mediastinal disorders, n (%) (Cohort H 125 mg, white): 1 (12.5) | Skin and subcutaneous tissue disorders, Events (Cohort H 125 mg, white): 0 | Skin and subcutaneous tissue disorders, n (%) (Cohort H 125 mg, white): 0 | Somnolence, Events (Cohort H 125 mg, white): 0 | Somnolence, n (%) (Cohort H 125 mg, white): 0 | Vomiting, Events (Cohort H 125 mg, white): 0 | Vomiting, n (%) (Cohort H 125 mg, white): 0 | Diarrhea, n (%) [4]: 4/8 | Headache, n (%) [4]: 2/8 | High-density lipoprotein cholesterol decreased, n (%) [4]: 7/8 | course of the decrease in HDL-C levels (single- and multiple-dose administration): transient and generally reverted to the baseline values
